The text below walks through data of patent publication US20260240828A1, “GLYCOSPHINGOLIPID BIOSYNTHESIS INHIBITORS FOR TREATMENT OF TUMOURS DEPENDENT ON THE ONCOGENE GOLPH3 AND ON ONCOGENES OF THE GOLPH3 CLUSTER” (Golgenia S.R.L., priority 2023, published 2026).

The structures appear in SMILES notation.

Common to all, as to assay type: cell-based
For one experiment, the system named is DU145. In words: Chemoresistance: growth under adhesion with etoposide, p21 cell cycle arrest, DU145. The note with it: FIG. 2B. The method, then:
(§1) Eliglustat alone has no effect.
(§2) The cells were treated with etoposide at a concentration ranging between 10 and 40 μM for 12-16 hours.
(§3) The p21 levels were determined by immunoblotting as cycle arrest index.

The test system of a further experiment is LnCap. In words: Chemoresistance: growth under adhesion with etoposide, p21 cell cycle arrest, LnCap. The note with it: FIG. 2B. The method, then:
as §1, §2, §3

Experiment [1] concerns prostate, colon and liver tumour lines expressing an oncogene belonging to the GOLPH3 cluster. In words: Growth under anchorage-independent conditions, lines expressing a GOLPH3 cluster oncogene. The settings on record: concentrations 0 to 50 micromolar, FIG. 2A1 top series. The method, then:
(§4) The growth of tumour lines was evaluated under different experimental conditions. 12 tumour lines, divided into six pairs derived from six different types of tumour, were used. […] The growth of the lines was observed under 3 experimental conditions: 1) absence of anchorage to the matrix; 2) exposure to chemotherapy agents; 3) undisturbed growth under adhesion to the matrix.
(§5) Growth under conditions of adhesion to the matrix and absence of stress (bottom series, black) of the lines expressing an oncogene belonging to the GOLPH3 cluster is not inhibited by miglustat. Inhibition of GSL synthesis was about 70% (at 50 micromolar miglustat).
(§6) GCS enzyme inhibitors such as miglustat, eliglustat and N-[(1R,2R)-2-(2,3-dihydro-1,4-benzodioxin-6-yl)-2-hydroxy-1-(1-pyrrolidinylmethyl)ethyl]-nonanamide (Genz-123346), or P-gp inhibitors such as zosuquidar, were used at two or three different concentrations, depending on the type of dose, to blockade glycosphingolipid biosynthesis in various tumour cells. For the growth assays, new media supplemented with the medicaments were added every three days.
(§7) • 1. Growth in the absence of anchorage (anchorage-independent) • 2. Growth of isolated cell clones (clonogenic analysis) • 3. Growth under adhesion (under adhesion).
(§8) Both the anchorage-independent and clonogenic growth tests were conducted as described previously in Rizzo et al., EMBOJ, 2021. […]

In experiment [2] the test system is tumour lines deriving from the same tumour type which do not express GOLPH3. In words: Growth under anchorage-independent conditions, lines not expressing GOLPH3. The note with it: 0 to 50 micromolar; lines of same tumour type not expressing GOLPH3; FIG. 2A1 middle series. The method, then:
as §4, §5, §6, §7, §8

A further experiment deals with GSL synthesis. The experiment is described as follows: Glycosphingolipid metabolism (radiolabelling of cell sphingosine, TLC). The settings on record: at 50 micromolar miglustat. The text has this:
To analyse the glycosphingolipid metabolites we used a method based on radiolabelling of cell sphingosine followed by extraction of metabolites and separation by thin-layer chromatography (TLC) as previously described in Rizzo et al., EMOJ, 2021.

Experiment [3] relates to lines expressing an oncogene belonging to the GOLPH3 cluster. The experiment is described as follows: Growth under adhesion to the matrix and absence of stress. The note with it: lines expressing a GOLPH3 cluster oncogene; FIG. 2A1 bottom series. The method, then: as §4, §5, §6, §7, §8

For `COc1cc([C@@H]2c3cc4c(cc3[C@@H](O[C@@H]3O[C@@H]5CO[C@@H](C)O[C@H]5[C@H](O)[C@H]3O)[C@H]3COC(=O)[C@H]23)OCO4)cc(OC)c1O` [etoposide], the “response to etoposide alone (chemoresistance)” value in the experiment with DU145 (DU145, expressing a GOLPH3 cluster oncogene) is “resistant”. Besides, the “cell cycle arrest (p21 synthesis), etoposide alone” value in the experiment on LnCap (not expressing a GOLPH3 cluster oncogene) was “cell cycle arrest (strong increase in p21 synthesis)”.

Consider `CCCCN1C[C@H](O)[C@@H](O)[C@H](O)[C@H]1CO` [miglustat], for which the “growth under anchorage-independent conditions” value is “inhibited” in experiment [1] and “not inhibited” in experiment [2]. The inhibition at 50 µM in the experiment with GSL synthesis is around 70%. Also, the “growth under conditions of adhesion to the matrix and absence of stress” value in experiment [3] is recorded as “not inhibited”.

Turning to `CCCCCCCC(=O)N[C@H](CN1CCCC1)[C@H](O)c1ccc2c(c1)OCCO2` [eliglustat], the “effect of co-treatment on resistance to etoposide” value in the experiment on DU145 (DU145, co-treatment with etoposide) is “loses said resistance”. For the same compound, the “effect of inhibitor alone” value with DU145 (without etoposide) is given as “no effect”. For the same compound, in the experiment on LnCap (co-treatment with etoposide), the “effect of co-treatment on etoposide-induced cell cycle arrest” value is “does not modify said situation”.

As a reminder, the inhibition is the share of the control response that was lost under treatment. A high value points to a response far below the control.
